Experimental data reported in BindingDB's records for doi:10.1002/1098-2396(20010101)39:1 (Nih, 2001).
pKi: −log10 of the molar value. Values joined by “and” are separate entries in the source; they are usually repeats but may differ in a detail not shown here. Equal entries are not always repeated.

Legend:
[1] = target: Sodium-dependent serotonin transporter (Rattus norvegicus, UniProt P31652)
[2] = target: Norepinephrine transporter (Rattus norvegicus, UniProt Q9JIA2)
[3] = target: Sodium-dependent dopamine transporter (Rattus norvegicus, UniProt P23977)
Chain of Sodium-dependent dopamine transporter (P23977 whole entry): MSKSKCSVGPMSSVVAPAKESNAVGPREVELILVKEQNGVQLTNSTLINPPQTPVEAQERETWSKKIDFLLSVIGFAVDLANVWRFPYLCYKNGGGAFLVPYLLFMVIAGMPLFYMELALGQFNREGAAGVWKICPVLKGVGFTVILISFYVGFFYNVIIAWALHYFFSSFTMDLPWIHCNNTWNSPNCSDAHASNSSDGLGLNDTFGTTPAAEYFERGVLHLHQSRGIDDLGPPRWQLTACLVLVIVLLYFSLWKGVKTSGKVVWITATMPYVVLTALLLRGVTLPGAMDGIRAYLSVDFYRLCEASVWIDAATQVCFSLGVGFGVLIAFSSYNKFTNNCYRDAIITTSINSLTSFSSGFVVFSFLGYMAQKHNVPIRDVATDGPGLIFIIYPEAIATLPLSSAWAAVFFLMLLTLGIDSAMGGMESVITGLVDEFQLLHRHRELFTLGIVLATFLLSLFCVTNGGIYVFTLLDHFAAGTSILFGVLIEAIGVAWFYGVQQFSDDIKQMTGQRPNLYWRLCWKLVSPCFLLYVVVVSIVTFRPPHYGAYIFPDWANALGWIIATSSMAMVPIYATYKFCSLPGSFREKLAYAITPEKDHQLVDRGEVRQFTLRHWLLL

Chain of Sodium-dependent serotonin transporter (P31652 whole entry): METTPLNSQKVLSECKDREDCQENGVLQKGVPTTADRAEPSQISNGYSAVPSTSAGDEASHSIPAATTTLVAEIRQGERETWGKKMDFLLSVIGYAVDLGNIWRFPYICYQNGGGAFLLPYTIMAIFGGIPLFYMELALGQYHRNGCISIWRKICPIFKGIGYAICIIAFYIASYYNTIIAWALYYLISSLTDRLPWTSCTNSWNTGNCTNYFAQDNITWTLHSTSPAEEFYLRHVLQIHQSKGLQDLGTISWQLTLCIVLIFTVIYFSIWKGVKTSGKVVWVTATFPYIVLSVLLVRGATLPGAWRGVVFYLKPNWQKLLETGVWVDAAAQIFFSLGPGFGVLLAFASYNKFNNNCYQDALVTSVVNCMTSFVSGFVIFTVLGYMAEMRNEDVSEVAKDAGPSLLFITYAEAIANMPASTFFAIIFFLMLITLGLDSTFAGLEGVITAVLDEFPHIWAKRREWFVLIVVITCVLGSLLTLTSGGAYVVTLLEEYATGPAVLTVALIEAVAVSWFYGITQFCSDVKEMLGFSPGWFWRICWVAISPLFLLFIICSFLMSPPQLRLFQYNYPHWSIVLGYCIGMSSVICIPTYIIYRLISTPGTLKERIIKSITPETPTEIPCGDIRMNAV

| Compound | pKi [1] | pKi [2] | pKi [3] |
| --- | --- | --- | --- |
| NCCc1ccc(O)cc1 | 5.81 | 7.14 | 6.97 |
| NCCc1ccc(O)c(O)c1 | 5.19 | 7.39 | – |
| CC(C)(N)Cc1ccccc1 [2-methyl-1-phenylpropan-2-amine] | < 5.00 | 6.61 | 5.80 |
| COC(=O)C1C2CC[C@H](C[C@@H]1c1ccc(N)cc1)N2C (stereo partly drawn) [(3S,8R)-3-(4-Amino-phenyl)-8-methyl-8-aza-bicyclo[3.2.1]octane-2-carboxylic acid methyl ester] | – | – | 8.67 |
| CC(C)(N)Cc1ccc(Cl)cc1 [CAS_461-78-9] | 6.47 | 6.35 | 5.40 |
| NC1=NCC(c2ccccc2)O1 (stereo not drawn) [CAS_2207-50-3] | 5.91 | 7.26 | 6.67 |
| CN[C@@H](C)Cc1ccc2c(c1)OCO2 [DL-(3,4-Methylenedioxy)methamphetamine] | 6.62 | 6.34 | 5.80 |
| CN[C@@H](C)[C@H](O)c1ccccc1 [Ephedrine,(-)] | < 5.00 | 6.65 | 5.36 |
| c1ccc(CCCN2CCN(CCOC(c3ccccc3)c3ccccc3)CC2)cc1 [GBR-12935] | – | 6.56 | – |
| CN[C@@H](C)Cc1ccccc1 [METHAMPHETAMINE (+)] | – | 7.32 and 6.63 | – |
| O[C@]1(c2ccc(Cl)cc2)c2ccccc2C2=NCCN21 [Mazanor] | 6.57 | 8.54 | 7.59 |
| CCNC(C)Cc1cccc(C(F)(F)F)c1 (stereo not drawn) [NSC_3337] | – | – | < 5.00 |
| NCC(O)c1ccc(O)c(O)c1 (stereo not drawn) [Noradrenaline,(+)] | < 5.00 | 7.19 | 6.45 |
| COC(=O)[C@H]1[C@@H](c2ccc(I)cc2)C[C@@H]2CC[C@H]1N2C [RTI 55, (exo,exo)-isomer, Iodine (125) labeled] | 9.00 | 8.23 | 9.08 |
| CN1[C@H]2CC[C@@H]1[C@@H](C(=O)N1CCCC1)[C@@H](c1ccc(I)cc1)C2 [RTI-229] | 6.44 | 7.71 | – |
| NCCc1c[nH]c2ccc(O)cc12 [[3H]-5-HT] | – | 5.52 | 5.57 |
| C[C@H](N)Cc1ccccc1 [beta-aminopropylbenzene] | – | 7.41 | – |
